Results on two compounds are retold here after ChEMBL document CHEMBL3751734, “Late-stage optimization of a tercyclic class of S1P3-sparing, S1P1 receptor agonists” (Bioorg Med Chem Lett, 2016).

One data set deals with HepG2. The experiment in a line: Toxicity in human HepG2 cells assessed as phospholipidosis at 0.1 to 200 uM after 48 hrs by Hoechst […] staining-based lipidTOX assay. It counts as cell-based. Conditions: hepg2, 48 h.
In data set [1] the target is Sphingosine 1-phosphate receptor 1 (Homo sapiens, UniProt P21453). Put plainly: Agonist activity at human S1P1 receptor expressed in EDG1-bla U2OS cells incubated for 18 hrs prior to GenBlazer substrate addition by beta-arrestin recruitment assay. It counts as cell-based. (In general: Activated receptors often draw arrestin, which recruitment assays turn into a signal.)
Sequence of Sphingosine 1-phosphate receptor 1 (P21453 whole entry): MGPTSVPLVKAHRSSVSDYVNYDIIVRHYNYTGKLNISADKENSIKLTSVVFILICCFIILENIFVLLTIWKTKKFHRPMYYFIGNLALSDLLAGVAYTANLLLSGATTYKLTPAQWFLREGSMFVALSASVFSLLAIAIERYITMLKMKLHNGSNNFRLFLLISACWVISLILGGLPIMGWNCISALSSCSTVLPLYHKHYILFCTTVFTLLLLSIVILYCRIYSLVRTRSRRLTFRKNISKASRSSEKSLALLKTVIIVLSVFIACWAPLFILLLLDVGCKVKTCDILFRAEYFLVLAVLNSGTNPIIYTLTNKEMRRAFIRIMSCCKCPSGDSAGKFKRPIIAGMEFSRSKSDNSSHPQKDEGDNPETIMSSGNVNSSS

Data set [2] in a line: Kinetic solubility of the compound in buffer at pH 7.4 after 16 to 19 hrs by UV absorbance assay. The data set is classed as physicochemical. Conditions: read-out: Kinetic_solubility.
The target of data set [3] is Sphingosine 1-phosphate receptor 3 (Homo sapiens, UniProt Q99500). Put plainly: Agonist activity at human S1P3 receptor expressed in EDG3-bla U2OS cells incubated for 18 hrs prior to GenBlazer substrate addition by beta-arrestin recruitment assay. The data set is classed as cell-based.
Sequence of Sphingosine 1-phosphate receptor 3 (Q99500 whole entry): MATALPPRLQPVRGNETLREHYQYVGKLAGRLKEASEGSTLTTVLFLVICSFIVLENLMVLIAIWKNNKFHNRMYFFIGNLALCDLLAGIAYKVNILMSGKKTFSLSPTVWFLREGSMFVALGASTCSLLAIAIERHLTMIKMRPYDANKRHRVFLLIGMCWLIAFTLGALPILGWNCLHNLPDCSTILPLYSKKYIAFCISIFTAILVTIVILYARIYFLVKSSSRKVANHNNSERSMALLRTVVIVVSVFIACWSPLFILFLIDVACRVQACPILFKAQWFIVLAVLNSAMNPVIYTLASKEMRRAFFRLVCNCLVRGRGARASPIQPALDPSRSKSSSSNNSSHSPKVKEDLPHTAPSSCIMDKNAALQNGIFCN
Data set [4] can be described thus: Ratio of drug level in brain to plasma (unknown origin). It counts as ADME, cell-free. To be noted: read-out: BPR.
For another data set, the species on record is Homo sapiens. The experiment in a line: Selectivity ratio of EC50 for human S1P5 receptor to EC50 for human S1P1 receptor.
Data set [5] concerns the target Sphingosine 1-phosphate receptor 5 (Homo sapiens, UniProt Q9H228). The experiment in a line: Agonist activity at human S1P5 receptor expressed in EDG8-bla U2OS cells incubated for 18 hrs prior to GenBlazer substrate addition by beta-arrestin recruitment assay. The data set is classed as cell-based.
The nature of data set [6]: Equilibrium solubility of the compound in citric acid monohydrate/Na2HPO4 dihydrate buffer at pH 6.8 after 24 hrs by RP-HPLC analysis. The data set is classed as physicochemical.

The EC50 is the concentration that produces a half-maximal response. For orientation: solubility (thermodynamic) means the concentration in solution at equilibrium with solid.

Values after ≈ are worked out from the molar mass of the structure shown. Some results are limits rather than exact numbers.

Sequence of Sphingosine 1-phosphate receptor 5 (Q9H228 whole entry): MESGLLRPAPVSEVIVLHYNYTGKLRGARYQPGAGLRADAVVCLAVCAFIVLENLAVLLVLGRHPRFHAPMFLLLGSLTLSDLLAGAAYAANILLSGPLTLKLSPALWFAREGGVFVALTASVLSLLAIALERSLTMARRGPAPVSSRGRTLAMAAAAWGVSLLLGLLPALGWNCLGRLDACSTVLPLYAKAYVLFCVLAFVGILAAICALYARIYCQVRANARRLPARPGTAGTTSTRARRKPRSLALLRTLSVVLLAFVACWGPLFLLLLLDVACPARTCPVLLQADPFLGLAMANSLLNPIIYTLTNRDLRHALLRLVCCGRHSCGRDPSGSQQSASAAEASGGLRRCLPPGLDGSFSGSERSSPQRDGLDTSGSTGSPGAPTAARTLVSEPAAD

Turning to `Cc1cc(-c2nc(-c3cc(F)c(OC[C@H]4COC(=O)N4)cc3Cl)no2)cc(NC(C)C)n1`, in the data set on HepG2, the Activity entry was “Non-toxic”. This compound also came in with an EC50 in data set [1] of 0.6 nM. Also, the solubility kinetic in data set [2] is 0.1 µg/mL (≈ 0.217 µM).

As to `Cc1nc(CC(C)C)cc(-c2nc(-c3ccc(O[C@@H]4CCC(=O)NC4)c(F)c3)no2)n1`, the EC50 is over 10000 nM in data set [3], 50 nM in data set [1] and 360 nM in data set [5]. Moreover, the Kp in data set [4] was determined as 0.1. Further, in data set [2], the solubility kinetic is over 40 µg/mL. Also, in the data set listed under Homo sapiens, the Ratio EC50 was determined as 7. For the same compound, the thermodynamic solubility at 24 h in data set [6] worked out at 27 µg/mL (≈ 63.5 µM).
